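Growth conditions: 96-well plates. Treatment: test compound, 48 hours, 5 concentrations. Analysis: linear interpolation between bracketing concentrations; unreached endpoints set to highest concentration. The concentration for full growth arrest is given as TGI.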
Legend:
Assay in all cases: NCI anticancer screen, dose series, 48 h
786-0 renal = test system: 786-0 renal
A498 renal = test system: A498 renal
A549 NSCLC = test system: A549 NSCLC
ACHN renal = test system: ACHN renal
BT-549 breast = test system: BT-549 breast
CAKI-1 renal = test system: CAKI-1 renal
CCRF-CEM leukemia = test system: CCRF-CEM leukemia
COLO 205 colon = test system: COLO 205 colon
DU-145 prostate = test system: DU-145 prostate
EKVX NSCLC = test system: EKVX NSCLC
HCC-2998 colon = test system: HCC-2998 colon
HCT-116 colon = test system: HCT-116 colon
HCT-15 colon = test system: HCT-15 colon
HL-60(TB) leukemia = test system: HL-60(TB) leukemia
HOP-62 NSCLC = test system: HOP-62 NSCLC
HOP-92 NSCLC = test system: HOP-92 NSCLC
HS 578T breast = test system: HS 578T breast
HT29 colon = test system: HT29 colon
IGROV1 ovarian = test system: IGROV1 ovarian
K-562 leukemia = test system: K-562 leukemia
KM12 colon = test system: KM12 colon
LOX IMVI melanoma = test system: LOX IMVI melanoma
MALME-3M melanoma = test system: MALME-3M melanoma
MCF7 breast = test system: MCF7 breast
MDA-MB-231 breast = test system: MDA-MB-231 breast
MDA-MB-435 = test system: MDA-MB-435
MDA-N = test system: MDA-N
MOLT-4 leukemia = test system: MOLT-4 leukemia
NCI-H226 lung = test system: NCI-H226 lung
NCI-H23 lung = test system: NCI-H23 lung
NCI-H460 lung = test system: NCI-H460 lung
NCI-H522 lung = test system: NCI-H522 lung
NCI/ADR-RES ovarian = test system: NCI/ADR-RES ovarian
OVCAR-3 ovarian = test system: OVCAR-3 ovarian
OVCAR-4 ovarian = test system: OVCAR-4 ovarian
OVCAR-5 ovarian = test system: OVCAR-5 ovarian
OVCAR-8 ovarian = test system: OVCAR-8 ovarian
PC-3 prostate = test system: PC-3 prostate
RPMI-8226 leukemia = test system: RPMI-8226 leukemia
RXF 393 renal = test system: RXF 393 renal
SF-268 CNS = test system: SF-268 CNS
SF-295 CNS = test system: SF-295 CNS
SF-539 CNS = test system: SF-539 CNS
SK-MEL-28 melanoma = test system: SK-MEL-28 melanoma
SK-MEL-5 melanoma = test system: SK-MEL-5 melanoma
SN12C renal = test system: SN12C renal
SNB-19 CNS = test system: SNB-19 CNS
SNB-75 CNS = test system: SNB-75 CNS
SR leukemia = test system: SR leukemia
SW-620 colon = test system: SW-620 colon
TK-10 renal = test system: TK-10 renal
U251 CNS = test system: U251 CNS
UACC-257 melanoma = test system: UACC-257 melanoma
UO-31 renal = test system: UO-31 renal
M14 melanoma = test system: M14 melanoma
SK-MEL-2 melanoma = test system: SK-MEL-2 melanoma
SK-OV-3 ovarian = test system: SK-OV-3 ovarian
T-47D breast = test system: T-47D breast
UACC-62 melanoma = test system: UACC-62 melanoma

Work on `Cn1c(=O)c(-c2ccccc2)c(O)c2ccccc21` yielded a TGI (786-0 renal) greater than 100 µM, a TGI (A498 renal) greater than 100 µM and a TGI (A549 NSCLC) greater than 100 µM. The TGI (ACHN renal) was greater than 100 µM, the TGI (BT-549 breast) was greater than 100 µM and the TGI (CAKI-1 renal) was greater than 100 µM. It also gave a TGI (CCRF-CEM leukemia) greater than 100 µM, a TGI (COLO 205 colon) greater than 100 µM and a TGI (DU-145 prostate) greater than 100 µM. For the same molecule, the TGI (EKVX NSCLC) was greater than 100 µM, the TGI (HCC-2998 colon) was greater than 100 µM and the TGI (HCT-116 colon) was greater than 100 µM. The TGI (HCT-15 colon) was greater than 100 µM, the TGI (HL-60(TB) leukemia) was greater than 100 µM and the TGI (HOP-62 NSCLC) was greater than 100 µM. It also gave a TGI (HOP-92 NSCLC) greater than 100 µM, a TGI (HS 578T breast) greater than 100 µM and a TGI (HT29 colon) greater than 100 µM. The TGI (IGROV1 ovarian) was greater than 100 µM, the TGI (K-562 leukemia) was greater than 100 µM and the TGI (KM12 colon) was greater than 100 µM. The TGI (LOX IMVI melanoma) was greater than 100 µM, the TGI (MALME-3M melanoma) was greater than 100 µM and the TGI (MCF7 breast) was greater than 100 µM. For the same molecule, the TGI (MDA-MB-231 breast) was greater than 100 µM, the TGI (MDA-MB-435) was greater than 100 µM and the TGI (MDA-N) was greater than 100 µM. It also gave a TGI (MOLT-4 leukemia) greater than 100 µM, a TGI (NCI-H226 lung) greater than 100 µM and a TGI (NCI-H23 lung) greater than 100 µM. The TGI (NCI-H460 lung) was greater than 100 µM, the TGI (NCI-H522 lung) was greater than 100 µM and the TGI (NCI/ADR-RES ovarian) was greater than 100 µM. For the same molecule, the TGI (OVCAR-3 ovarian) was greater than 100 µM, the TGI (OVCAR-4 ovarian) was greater than 100 µM and the TGI (OVCAR-5 ovarian) was greater than 100 µM. It also gave a TGI (OVCAR-8 ovarian) greater than 100 µM, a TGI (PC-3 prostate) greater than 100 µM and a TGI (RPMI-8226 leukemia) greater than 100 µM. For the same molecule, the TGI (RXF 393 renal) was greater than 100 µM, the TGI (SF-268 CNS) was greater than 100 µM and the TGI (SF-295 CNS) was greater than 100 µM. For the same molecule, the TGI (SF-539 CNS) was greater than 100 µM, the TGI (SK-MEL-28 melanoma) was greater than 100 µM and the TGI (SK-MEL-5 melanoma) was greater than 100 µM. The TGI (SN12C renal) was greater than 100 µM, the TGI (SNB-19 CNS) was greater than 100 µM and the TGI (SNB-75 CNS) was greater than 100 µM. For the same molecule, the TGI (SR leukemia) was greater than 100 µM, the TGI (SW-620 colon) was greater than 100 µM and the TGI (TK-10 renal) was greater than 100 µM. It also gave a TGI (U251 CNS) greater than 100 µM, a TGI (UACC-257 melanoma) greater than 100 µM and a TGI (UO-31 renal) greater than 100 µM.
In the case of `O=S(=O)(c1cc(Cl)ccc1Cl)n1ccnc1`, the TGI (786-0 renal) is reported as greater than 100 µM, the TGI (A498 renal) is reported as 95 µM and the TGI (A549 NSCLC) is reported as greater than 100 µM. For the same molecule, the TGI (ACHN renal) was greater than 100 µM, the TGI (BT-549 breast) was greater than 100 µM and the TGI (CAKI-1 renal) was greater than 100 µM. The TGI (CCRF-CEM leukemia) was greater than 100 µM, the TGI (COLO 205 colon) was 34.1 µM and the TGI (DU-145 prostate) was greater than 100 µM. The TGI (EKVX NSCLC) was greater than 100 µM, the TGI (HCC-2998 colon) was 42.4 µM and the TGI (HCT-116 colon) was greater than 100 µM. It also gave a TGI (HCT-15 colon) of 89.5 µM, a TGI (HL-60(TB) leukemia) of 88 µM and a TGI (HOP-62 NSCLC) greater than 100 µM. The TGI (HOP-92 NSCLC) was greater than 100 µM, the TGI (HS 578T breast) was greater than 100 µM and the TGI (HT29 colon) was greater than 100 µM. For the same molecule, the TGI (IGROV1 ovarian) was greater than 100 µM, the TGI (K-562 leukemia) was greater than 100 µM and the TGI (KM12 colon) was greater than 100 µM. The TGI (LOX IMVI melanoma) was greater than 100 µM, the TGI (M14 melanoma) was greater than 100 µM and the TGI (MALME-3M melanoma) was greater than 100 µM. It also gave a TGI (MCF7 breast) greater than 100 µM, a TGI (MDA-MB-231 breast) of 51.2 µM and a TGI (MDA-MB-435) of 37 µM. It also gave a TGI (MOLT-4 leukemia) greater than 100 µM, a TGI (NCI-H226 lung) of 52.8 µM and a TGI (NCI-H23 lung) of 52.8 µM. For the same molecule, the TGI (NCI-H460 lung) was greater than 100 µM, the TGI (NCI-H522 lung) was greater than 100 µM and the TGI (NCI/ADR-RES ovarian) was 45.7 µM. The TGI (OVCAR-3 ovarian) was greater than 100 µM, the TGI (OVCAR-4 ovarian) was greater than 100 µM and the TGI (OVCAR-5 ovarian) was greater than 100 µM. It also gave a TGI (OVCAR-8 ovarian) greater than 100 µM, a TGI (PC-3 prostate) greater than 100 µM and a TGI (RPMI-8226 leukemia) of 91.6 µM. It also gave a TGI (RXF 393 renal) of 74.1 µM, a TGI (SF-268 CNS) greater than 100 µM and a TGI (SF-295 CNS) greater than 100 µM. It also gave a TGI (SF-539 CNS) of 39.3 µM, a TGI (SK-MEL-2 melanoma) greater than 100 µM and a TGI (SK-MEL-28 melanoma) greater than 100 µM. The TGI (SK-MEL-5 melanoma) was 53.9 µM, the TGI (SK-OV-3 ovarian) was greater than 100 µM and the TGI (SN12C renal) was 84.4 µM. It also gave a TGI (SNB-19 CNS) greater than 100 µM, a TGI (SNB-75 CNS) greater than 100 µM and a TGI (SR leukemia) of 70.9 µM. For the same molecule, the TGI (SW-620 colon) was greater than 100 µM, the TGI (T-47D breast) was greater than 100 µM and the TGI (TK-10 renal) was greater than 100 µM. For the same molecule, the TGI (U251 CNS) was greater than 100 µM, the TGI (UACC-257 melanoma) was greater than 100 µM and the TGI (UACC-62 melanoma) was greater than 100 µM. The TGI (UO-31 renal) was greater than 100 µM.
